Measurements taken from US20220107328A1, “METHODS OF TREATING LIVER DISEASES” (Camp4 Therapeutics Corporation, priority 2018, published 2022).
Values belong to the molecule of their own block, whether it stands above or below them.

Legend:
[1] = system: PNPLA3 mRNA; test: qRT-PCR of PNPLA3 mRNA in human primary hepatic stellate cells; format: cell-based; conditions: 3 μM, relative to GAPDH
[2] = system: COL1A1 mRNA; test: qRT-PCR of COL1A1 mRNA in human primary hepatic stellate cells; format: cell-based; conditions: 3 μM, relative to GAPDH
Experimental: Cells were plated at a density of 17000 cells/well in a 96-well plate and allowed to adhere overnight. The following day cell culture media was replenished with the indicated concentration(s) of compound for 18 hours. […] Medium was removed after 18 hours and cells were processed for further analysis, e.g. qRT-PCR.
Analysis of the fold changes in expression as measured by qRT-PCR were performed using the technique below. The control was DMSO, and the treatment was the selected compound (CPD). The internal control was GAPDH or B-Actin (or otherwise indicated), and the gene of interest is the target. First, the averages of the 4 conditions were calculated for normalization: DMSO:GAPDH, DMSO:Target, CPD: GAPDH, and CPD:Target. Next, the ΔCT of both control and treatment were calculated to normalize to internal control (GAPDH) using (DMSO:Target)−(DMSO:GAPDH)=ΔCT control and (CPD:Target)−(CPD: GAPDH)=ΔCT experimental. Then, the ΔΔCT was calculated by ΔCT experimental−ΔCT control.
Candidate compounds were tested in stellate cells for their ability to modulate PNPLA3 and COL1A1. Stellate cells were treated with serial dilutions of the compounds, ranging from 0.1 μM to 100 μM. Changes in PNPLA3 (or COL1A1) mRNA levels in stellate cells were analyzed with qRT-PCR.

[3] = system: PCSK9 mRNA; test: qRT-PCR of PCSK9 mRNA in primary hepatocytes; format: cell-based, human; conditions: donor 4178, 3 μM, relative to GUSB
[4] = system: PNPLA3 mRNA; test: qRT-PCR of PNPLA3 mRNA in compound-treated primary human hepatocytes; conditions: relative to GUSB; for Primary Hepatocytes 4178 PNPLA3 (fold change in mRNA expression): donor 4178, 3 μM; for Primary Hepatocytes 4282 PNPLA3 (fold change in mRNA expression): donor 4282, 3 μM

Primary Hepatocytes 4178 PCSK9 (fold change in mRNA expression) [3]: 0.66 | Primary Hepatocytes 4178 PNPLA3 (fold change in mRNA expression) [4]: 0.60 | Primary Hepatocytes 4282 PNPLA3 (fold change in mRNA expression) [4]: 0.80
SMILES: FC(F)c1nc2ccccc2n1-c1nc(N2CCOCC2)nc(N2CCOCC2)n1 [ZSTK474]
Primary Stellate cells PNPLA3 (fold change in mRNA expression) [1]: 0.68 | Primary Stellate cells COL1A1 (fold change in mRNA expression) [2]: 0.71

Primary Hepatocytes 4178 PCSK9 (fold change in mRNA expression) [3]: 0.95 | Primary Hepatocytes 4178 PNPLA3 (fold change in mRNA expression) [4]: 1.16 | Primary Hepatocytes 4282 PNPLA3 (fold change in mRNA expression) [4]: 0.93
SMILES: O=c1c(O)c(-c2ccc(O)c(O)c2)oc2cc(O)cc(O)c12 [Quercetin]
Primary Stellate cells PNPLA3 (fold change in mRNA expression) [1]: 1.11 | Primary Stellate cells COL1A1 (fold change in mRNA expression) [2]: 0.94

Primary Hepatocytes 4178 PCSK9 (fold change in mRNA expression) [3]: 1.04 | Primary Hepatocytes 4178 PNPLA3 (fold change in mRNA expression) [4]: 1.10 | Primary Hepatocytes 4282 PNPLA3 (fold change in mRNA expression) [4]: 1.20
SMILES: O=[N+]([O-])c1ccc(Nc2nc(N3CCOCC3)nc(N3CCOCC3)n2)cc1 [MHY1485]
Primary Stellate cells PNPLA3 (fold change in mRNA expression) [1]: 0.86 | Primary Stellate cells COL1A1 (fold change in mRNA expression) [2]: 0.87

Primary Hepatocytes 4178 PCSK9 (fold change in mRNA expression) [3]: 0.67 | Primary Hepatocytes 4178 PNPLA3 (fold change in mRNA expression) [4]: 0.72 | Primary Hepatocytes 4282 PNPLA3 (fold change in mRNA expression) [4]: 0.62
SMILES: Cc1nc(-c2cn3c(n2)-c2ccc(-c4cnn(C(C)(C)C(N)=O)c4)cc2OCC3)n(C(C)C)n1 [Taselisib (GDC 0032)]
Primary Stellate cells PNPLA3 (fold change in mRNA expression) [1]: 0.77 | Primary Stellate cells COL1A1 (fold change in mRNA expression) [2]: 1.32

Primary Hepatocytes 4178 PCSK9 (fold change in mRNA expression) [3]: 0.69
SMILES: Nc1nc(N)c2nc(-c3cccc(O)c3)c(-c3cccc(O)c3)nc2n1 [TG100-115]
Primary Stellate cells PNPLA3 (fold change in mRNA expression) [1]: 1.07 | Primary Stellate cells COL1A1 (fold change in mRNA expression) [2]: 1.11

Primary Hepatocytes 4178 PCSK9 (fold change in mRNA expression) [3]: 1.05
SMILES: COc1ccc(COc2cc3oc(=O)c4cc(C(C)O)ccc4c3cc2OC)cc1 (stereo not shown) [Palomid 529 (P529)]
Primary Stellate cells PNPLA3 (fold change in mRNA expression) [1]: 0.97 | Primary Stellate cells COL1A1 (fold change in mRNA expression) [2]: 1.10

Continued, molecule first:

SMILES: CO[C@H]1CC[C@H](N2C(=O)CNc3ncc(-c4ccc(C(C)(C)O)nc4)nc32)CC1 [CC-223]
Primary Stellate cells PNPLA3 (fold change in mRNA expression) [1]: 0.33 | Primary Stellate cells COL1A1 (fold change in mRNA expression) [2]: 0.50 | Primary Hepatocytes 4178 PCSK9 (fold change in mRNA expression) [3]: 0.72 | Primary Hepatocytes 4178 PNPLA3 (fold change in mRNA expression) [4]: 0.51 | Primary Hepatocytes 4282 PNPLA3 (fold change in mRNA expression) [4]: 0.80

SMILES: Cc1c(CN2CCN(C(=O)[C@H](C)O)CC2)sc2c(N3CCOCC3)nc(-c3cnc(N)nc3)nc12 [Apitolisib (GDC-0980, RG7422)]
Primary Stellate cells PNPLA3 (fold change in mRNA expression) [1]: 0.56 | Primary Stellate cells COL1A1 (fold change in mRNA expression) [2]: 0.54 | Primary Hepatocytes 4178 PCSK9 (fold change in mRNA expression) [3]: 0.31 | Primary Hepatocytes 4178 PNPLA3 (fold change in mRNA expression) [4]: 0.32 | Primary Hepatocytes 4282 PNPLA3 (fold change in mRNA expression) [4]: 0.46

SMILES: O=C1OC(COc2ccccc2[N+](=O)[O-])CC1Cc1ccccc1 (stereo not shown) [Compound 3BDO]
Primary Stellate cells PNPLA3 (fold change in mRNA expression) [1]: 0.91 | Primary Stellate cells COL1A1 (fold change in mRNA expression) [2]: 1.03 | Primary Hepatocytes 4178 PCSK9 (fold change in mRNA expression) [3]: 1.01 | Primary Hepatocytes 4178 PNPLA3 (fold change in mRNA expression) [4]: 1.10 | Primary Hepatocytes 4282 PNPLA3 (fold change in mRNA expression) [4]: 1.00

SMILES: CNC(=O)c1cccc(-c2ccc3c(N4CCOC[C@@H]4C)nc(N4CCOC[C@@H]4C)nc3n2)c1 [AZD2014]
Primary Stellate cells PNPLA3 (fold change in mRNA expression) [1]: 0.56 | Primary Stellate cells COL1A1 (fold change in mRNA expression) [2]: 0.55 | Primary Hepatocytes 4178 PCSK9 (fold change in mRNA expression) [3]: 0.36 | Primary Hepatocytes 4178 PNPLA3 (fold change in mRNA expression) [4]: 0.43 | Primary Hepatocytes 4282 PNPLA3 (fold change in mRNA expression) [4]: 0.80

SMILES: Cc1c(Cn2c(C)nc3c(C(=O)O)cc(N4CCOCC4)cc32)cccc1C(F)(F)F [GSK2636771]
Primary Stellate cells PNPLA3 (fold change in mRNA expression) [1]: 1.06 | Primary Stellate cells COL1A1 (fold change in mRNA expression) [2]: 1.04 | Primary Hepatocytes 4178 PCSK9 (fold change in mRNA expression) [3]: 0.59
